Measured values published in publication PMC3509171 (Nature chemical biology, 2012).
Numbering of substitutions follows the chain as printed.

Assays:
[1] = biological target: T1, hOGT (312-1031) (Homo sapiens, UniProt O15294, D564N); assay: surface plasmon resonance, […] equilibrium fit; assay type: binding
T1 sequence (O15294 322-1041 D564N): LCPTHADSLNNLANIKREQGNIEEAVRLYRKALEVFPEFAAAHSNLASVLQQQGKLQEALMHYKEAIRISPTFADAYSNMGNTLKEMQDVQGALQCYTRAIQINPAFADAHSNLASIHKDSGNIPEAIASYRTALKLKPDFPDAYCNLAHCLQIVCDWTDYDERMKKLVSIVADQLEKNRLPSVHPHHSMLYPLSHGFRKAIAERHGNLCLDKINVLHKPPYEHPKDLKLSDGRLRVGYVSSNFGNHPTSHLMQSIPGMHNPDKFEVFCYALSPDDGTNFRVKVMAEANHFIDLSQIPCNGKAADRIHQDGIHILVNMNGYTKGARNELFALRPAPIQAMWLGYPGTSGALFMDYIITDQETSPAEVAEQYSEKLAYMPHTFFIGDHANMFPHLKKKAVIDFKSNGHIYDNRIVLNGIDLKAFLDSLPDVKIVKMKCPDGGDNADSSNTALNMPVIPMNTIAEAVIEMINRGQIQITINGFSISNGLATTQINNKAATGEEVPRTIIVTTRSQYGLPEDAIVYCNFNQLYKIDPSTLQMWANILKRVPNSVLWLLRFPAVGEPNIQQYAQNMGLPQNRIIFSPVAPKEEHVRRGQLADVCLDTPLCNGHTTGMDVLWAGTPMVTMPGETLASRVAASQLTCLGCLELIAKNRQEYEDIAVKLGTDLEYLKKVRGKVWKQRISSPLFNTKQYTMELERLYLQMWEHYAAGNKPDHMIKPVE

[2] = biological target: T2, hOGT (312-1031) (Homo sapiens, UniProt O15294); assay: surface plasmon resonance, […] equilibrium fit; assay type: binding
T2 sequence (O15294 322-1041): T1 sequence (O15294 322-1041 D564N) with N243D

[3] = biological target: T3, hOGT (312-1031) (Homo sapiens, UniProt O15294, K852M); assay: surface plasmon resonance, […] equilibrium fit; assay type: binding
T3 sequence (O15294 322-1041 K852M): T1 sequence (O15294 322-1041 D564N) with N243D, K531M

[4] = biological target: T4, hOGT (312-1031) (Homo sapiens, UniProt O15294, H568F); assay: surface plasmon resonance, […] equilibrium fit; assay type: binding
T4 sequence (O15294 322-1041 H568F): T1 sequence (O15294 322-1041 D564N) with N243D, H247F

[5] = biological target: T2, hOGT (312-1031); assay: in vitro O-GlcNAc transfer inhibition; assay type: biochemical

| Structure (SMILES) | Kd [1] | Kd [2] | Kd [3] | Kd [4] | IC50 [5] |
| --- | --- | --- | --- | --- | --- |
| CC(=O)N[C@H]1[C@@H](OP(=O)(O)OP(=O)(O)OC[C@H]2O[C@@H](n3ccc(=O)[nH]c3=O)[C@H](O)[C@@H]2O)O[C@H](CO)[C@@H](O)[C@@H]1O [UDP-GlcNAc] | 32.1 ± 0.3 µM | 16.1 ± 0.1 µM | 4.7 ± 0.1 µM | 42.3 ± 0.4 µM | – |
| O=c1ccn([C@@H]2O[C@H](COP(=O)(O)OP(=O)(O)O)[C@@H](O)[C@H]2O)c(=O)[nH]1 [UDP] | 0.6 ± 0.03 µM | – | – | 0.7 ± 0.1 µM | – |
| CC(=O)N[C@@H]1[C@@H](O)[C@H](O)[C@@H](CO)S[C@@H]1OP(=O)(O)OP(=O)(O)OC[C@H]1O[C@@H](n2ccc(=O)[nH]c2=O)[C@H](O)[C@@H]1O [compound 1, UDP-5S-GlcNAc] | – | – | 5.7 ± 0.1 µM | – | – |
| O=C(N[C@H]1[C@@H](OP(=O)(O)OP(=O)(O)OC[C@H]2O[C@@H](n3ccc(=O)[nH]c3=O)[C@H](O)[C@@H]2O)O[C@H](CO)[C@@H](O)[C@@H]1O)C(F)(F)F [compound 2, UDP-GlcNAcF3] | – | 12.1 ± 0.1 µM | 29.3 ± 0.1 µM | – | – |
| CC(=O)N[C@H]1[C@@H](OP(=O)(O)O[P@](O)(=S)OC[C@H]2O[C@@H](n3ccc(=O)[nH]c3=O)[C@H](O)[C@@H]2O)O[C@H](CO)[C@@H](O)[C@@H]1O [compound 4, RP-αS-UDP-GlcNAc] | – | 11.3 ± 0.1 µM | 2.8 ± 0.1 µM | – | 25 µM |
